Assay results published in PMC11855827, “High-Throughput Screening of Five Compound Libraries for Anthelmintic Activity and Toxicity Leads to the Discovery of Two Flavonoid Compounds” (International Journal of Molecular Sciences, 2025).
Like-named read-outs stand apart in the source and are kept apart here.

System: C. elegans
Assay: microbe, parasite or virus in culture
Conditions: Caenorhabditis elegans
[1] = 0 h, read-out: Percentage of motility inhibition 0 h, Table S2, C. elegans SS assay, 110 μM, 0 h, averages of 4 data points
[2] = 24 h, read-out: Percentage of motility inhibition 24 h, Table S2, C. elegans SS assay, 110 μM, 24 h, averages of 4 data points
[3] = 0 h, read-out: Percentage of motility inhibition 0 h
[4] = 24 h, read-out: Percentage of motility inhibition 24 h

Structure (SMILES)	inhibition at 110 µM [1]	inhibition at 110 µM [2]	inhibition at 110 µM [3]	inhibition at 110 µM [4]
CC(C)=CCC[C@](C)(O[C@@H]1O[C@H](CO[C@H]2O[C@H](CO)[C@@H](O)[C@@H]2O)[C@@H](O)[C@H](O)[C@H]1O)[C@H]1CC[C@]2(C)[C@@H]1[C@H](O)C[C@@H]1[C@@]3(C)CC[C@H](O)C(C)(C)[C@@H]3[C@@H](O)C[C@]12C [Ginsenoside F5]	43%	17%	–	–
Fc1ccccc1-c1nc2ccn(Cc3ccc(-c4ccc(C(F)(F)F)cc4C(F)(F)F)nn3)cc-2n1 [Tegobuvir]	68%	34%	–	–
C=CC(C)(O)CCC=C(C)C (centres unmarked) [Linalool]	–	–	14%	20%
N[C@@H](CCC(=O)O)C(=O)O [L-Glutamic acid]	3%	1%	–	–
CC(=O)C1C(=O)C=C(C)OC1=O (centres unmarked) [Dehydroacetic acid]	45%	17%	–	–
CN1C(=O)CC[C@H]1c1cccnc1 [Cotinine]	45%	16%	–	–
O=C(O)c1c[nH]c2ccccc12 [Indole‐3‐carboxylic acid]	0%	0%	–	–
OCc1ccc(O[C@@H]2O[C@H](CO)[C@@H](O)[C@H](O)[C@H]2O)cc1 [Gastrodin]	–	–	4%	8%
O=c1c(-c2ccc(O[C@@H]3O[C@H](CO)[C@@H](O)[C@H](O)[C@H]3O)cc2)coc2cc(O)cc(O)c12 [Sophoricoside]	–	–	0%	9%
COc1cc(-c2oc3cc(O)cc(O)c3c(=O)c2O[C@@H]2O[C@H](CO[C@@H]3O[C@@H](C)[C@H](O)[C@@H](O)[C@H]3O)[C@@H](O)[C@H](O)[C@H]2O)ccc1O [Narcissin]	42%	25%	–	–
COc1cc(NCc2ccc3nc(N)nc(N)c3c2C)cc(OC)c1OC [Trimetrexate]	15%	0%	–	–
N#CC(c1ccc(Cl)cc1)c1c(Cl)cc(-n2ncc(=O)[nH]c2=O)cc1Cl (centres unmarked) [Diclazuril]	28%	44%	–	–
COC(=O)Nc1nc2ccc(Sc3ccccc3)cc2[nH]1 [Fenbendazole]	8%	14%	–	–
CCCCCCCCCC(=O)N[C@@H](Cc1c[nH]c2ccccc12)C(=O)N[C@H](CC(N)=O)C(=O)N[C@@H](CC(=O)O)C(=O)N[C@@H]1C(=O)NCC(=O)N[C@@H](CCCN)C(=O)N[C@@H](CC(=O)O)C(=O)N[C@H](C)C(=O)N[C@@H](CC(=O)O)C(=O)NCC(=O)N[C@H](CO)C(=O)N[C@@H]([C@H](C)CC(=O)O)C(=O)N[C@@H](CC(=O)c2ccccc2N)C(=O)O[C@@H]1C [Daptomycin]	3%	8%	–	–
C[C@H](C[C@H](O)[C@H]1OC1(C)C)C1=C2C[C@H](O)[C@H]3[C@@]4(C)CCC(=O)C(C)(C)[C@@H]4CC[C@]3(C)[C@@]2(C)CC1 [Alisol B]	–	–	3%	10%
C[C@@H]1O[C@@H](O[C@H]2[C@H](O[C@H]3CC[C@]4(C)[C@H]5CC=C6[C@@H]7CC(C)(C)CC[C@]7(C(=O)O)CC[C@@]6(C)[C@]5(C)CC[C@H]4C3(C)C)OC[C@H](O[C@@H]3O[C@H](CO)[C@@H](O)[C@H](O)[C@H]3O)[C@@H]2O)[C@H](O)[C@H](O)[C@H]1O [Hederacolchiside A1]	0%	0%	–	–
O=C(NCNC(=O)NC1C(=O)NC(=O)N1CO)NC1C(=O)NC(=O)N1CO (centres unmarked) [Imidazolidinyl urea]	28%	10%	–	–
COc1cc(NS(=O)(=O)c2ccc(N)cc2)ncn1 [Sulfamonomethoxine]	6%	1%	–	–
CC/C=C\C/C=C\C/C=C\C/C=C\C/C=C\CCCC(=O)O [Eicosapentaenoic Acid]	0%	4%	–	–
COc1cc(/C=C/C(=O)O[C@H]2CC[C@]34C[C@]35CC[C@]3(C)[C@@H]([C@H](C)CCC=C(C)C)CC[C@@]3(C)[C@@H]5CC[C@H]4C2(C)C)ccc1O [Cycloartenyl ferulate]	35%	21%	–	–
C=C(CC[C@@H](C(=O)O)[C@H]1[C@H](O)C[C@@]2(C)C3=C(CC[C@]12C)[C@@]1(C)CC[C@H](OC(C)=O)C(C)(C)[C@@H]1CC3)C(C)C [Pachymic acid]	45%	21%	–	–
CS(=O)(=O)c1ccc([C@@H](O)[C@@H](CF)NC(=O)C(Cl)Cl)cc1 [Florfenicol]	29%	9%	–	–
COC(=O)C[C@](O)(CCC(C)(C)O)C(=O)O[C@@H]1C(OC)=C[C@]23CCCN2CCc2cc4c(cc2[C@H]13)OCO4 [Harringtonine]	–	0%	–	–
COc1cc([C@@H]2c3cc4c(cc3[C@@H](O[C@@H]3O[C@@H]5CO[C@@H](C)O[C@H]5[C@H](O)[C@H]3O)[C@H]3COC(=O)[C@H]23)OCO4)cc(OC)c1O [Etoposide]	0%	4%	–	–
